# In patent US11220491B2, “Photoprotective compositions containing Malassezia-derived compounds and/or chemical analogs thereof” (Versicolor Technologies, LLC, priority 2018, dated 2022):
# “Also recorded” adds a separate entry of the source. Where two headings read alike, the source gives them in different places.
# Assays:
# MelanoDerm™ Skin Model [1] = experiment: MelanoDerm Study 2, melanin assay (Example 19); assay type: cell-based, human; settings: 500 μM, 7-day period
# Description: The study also evaluated the potential dermal irritation induced by each test article as measured by the conversion of MTT by MelanoDerm™ tissues after repeated exposures to the test articles, over the 7 day treatment period.
# The test articles, Malassezin (CV-8684), Compound B (CV-8877), Compound E (AB12508), Compound H (AB12509), an unknown composition, Compound A5 (CV-8819), and 052 (AB12976), were prepared by diluting the stock concentrations with EPI-100-LLMM to final concentrations of 200 μM and 500 μM. The test article, Compound I (CV-8686), was prepared by diluting the stock concentration to 500 μM. All of the dilutions were vortexed for at least 1 minute, and then heated in a water bath at 37°±1° C. for 15 minutes. The dilutions were then vortexed again for at least 1 minute prior to being dosed on the tissues. The test article and solvent control, DMSO, was prepared as a 0.5% (v/v) dilution in EPI-100-LLMM. The test article dilution was vortexed for at least 1 minute and then again for at least 1 minute prior to being applied onto the tissues. […]
# The raw absorbance data were captured. The OD490 value of each melanin standard was determined. […] The corrected OD490 value of each melanin standard concentration was determined by subtracting the OD490 value of the blank well from the OD490 value of the melanin standard concentration. […]
# [2] = biological target: T1, arylhydrocarbon receptor (AhR) (Homo sapiens, UniProt P35869); experiment: HepG2-AhR-Luciferase assay; settings: EC50 (uM), 24 hours of treatment
# T1 sequence (P35869 11-848): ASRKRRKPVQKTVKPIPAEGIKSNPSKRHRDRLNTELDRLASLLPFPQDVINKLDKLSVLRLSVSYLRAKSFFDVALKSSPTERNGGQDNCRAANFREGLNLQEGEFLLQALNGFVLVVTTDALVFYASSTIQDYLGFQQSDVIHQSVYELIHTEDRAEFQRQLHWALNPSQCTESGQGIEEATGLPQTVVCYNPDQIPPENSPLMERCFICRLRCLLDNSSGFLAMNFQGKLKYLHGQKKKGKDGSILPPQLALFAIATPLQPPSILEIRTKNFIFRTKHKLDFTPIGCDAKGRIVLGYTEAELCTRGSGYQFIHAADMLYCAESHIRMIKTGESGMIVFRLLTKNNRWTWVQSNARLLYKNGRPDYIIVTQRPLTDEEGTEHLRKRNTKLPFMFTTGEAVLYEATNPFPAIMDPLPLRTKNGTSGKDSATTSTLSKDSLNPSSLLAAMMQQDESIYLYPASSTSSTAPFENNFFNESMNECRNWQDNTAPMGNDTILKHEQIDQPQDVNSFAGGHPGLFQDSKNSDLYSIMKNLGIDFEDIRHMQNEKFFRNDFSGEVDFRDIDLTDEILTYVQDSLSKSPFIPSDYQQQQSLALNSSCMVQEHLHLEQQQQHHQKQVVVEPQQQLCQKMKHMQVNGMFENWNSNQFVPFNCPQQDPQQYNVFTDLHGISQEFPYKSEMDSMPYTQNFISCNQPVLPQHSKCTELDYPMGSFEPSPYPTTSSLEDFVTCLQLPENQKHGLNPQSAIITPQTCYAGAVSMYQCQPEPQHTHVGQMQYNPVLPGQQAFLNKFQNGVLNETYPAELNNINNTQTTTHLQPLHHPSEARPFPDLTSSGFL
# Description: HepG2-AhR-Luc cells were purchased from Pharmaron, One-Glo Luciferase assay system was purchased from Promega. DMEM was purchased from Hyclone, and penicillin/streptomycin was purchased from Solabio.
# Culture media for stably transfected HepG2 cells was prepared by supplementing DMEM with high glucose and L-glutamine, as well as 10% FBS.
# HepG2-AhR-Luc cells were cultured in T-75 flasks at 37° C., 5% CO2, and 95% relative humidity. Cells were allowed to reach 80-90% confluence before detachment and splitting.
# Cultivated cells were rinsed with 5 mL PBS. PBS was aspirated away, 1.5 mL trypsin was added to the flask, and cells were incubated at 37° C. for approximately 5 minutes or until the cells detached and floated. Trypsin was inactivated by adding excess serum-containing media.
# The cell suspension was transferred to a conical tube and centrifuged at 120 g for 10 minutes to pellet the cells. Cells were resuspended in seeding media at a proper density. 40 μL of cells were transferred to a 384-well culture plate (5×10^3 cells/well). Plates were placed in the incubator at 37° C. for 24 hours.
# Afterward, stock solutions of test compounds and omeprazole positive control were prepared. Compound solutions were transferred into the assay plate using Echo550. The plate was then placed back into the incubator for compound treatment.
# Later, after 24 hours of treatment, the plate was removed from the incubator and allowed to cool at ambient temperature. 30 μL One-Glo reagent equal to that of the culture medium was added in each well. Cells were allowed to lyse for at least 3 minutes, and then measured in a luminometer.
# Dose responses were graphed using the non-linear regression analysis in XLfit and EC50 values were also calculated.
# MelanoDerm™ Skin Model [3] = experiment: MelanoDerm assay, pigmentation of tissues (Example 12); assay type: cell-based, human; settings: day 7; 200 μM and 50 μM
# Description: The MelanoDerm™ Skin Model will be exposed to the test article for a total of 7 days. […] (Berridge et al., 1996).
# Ten and 25 microliters, respectively, of each test article will be applied to each tissue. Twenty five microliters of the positive and negative controls, respectively, will be applied to each tissue.
# The definitive assay will include a negative control and a positive control. The MelanoDerm™ tissues designated to the assay negative control will be treated with 25 μL of sterile, deionized water. Twenty five microliters of 1% Kojic acid (prepared in sterile, deionized water and filtered at the time of preparation) will be used to dose the tissues designated to the assay positive control. The 1% Kojic acid will be stored in a tube covered with aluminum foil until used within 2 hours of preparation. The negative and positive control exposure times will be identical to those used for the test articles.
# The exact procedures used to collect images of the tissues will be specified in the study workbook and report.
# The trial will be conducted over a 7-day timeframe.
# The exact procedures used to collect images of the tissues will be specified in the study workbook and report. Then, the viability of the tissues will be determined by MTT reduction as indicated below.
# B16F1 cells = experiment: Annexin V assay (Example 16); assay type: cell-based; settings: 100 uM
# Description: (§1) Cells were harvested and the cell number was determined using a Countess Cell Counter. The cells were diluted with culture medium to the desired density.
# (§2) Test compounds were dissolved in DMSO to 30 mM stock. […] After the indicated incubation time, the plates were removed from the incubator for detection.
# (§3) For the Annexin V assay, plates were removed from the incubator and culture media was removed. […] Plates were read using ImageXpress Nano.
# MeWo cells [4] = experiment: Annexin V assay (Example 16); assay type: cell-based; settings: 100 uM
# Description: as §1, §2, §3
# WM115 cells [5] = experiment: Annexin V assay (Example 16); assay type: cell-based; settings: 100 uM
# Description: as §1, §2, §3
# [6] = system: Caspase 3/7 in MeWo cells; experiment: Caspase-Glo 3/7 assay (Example 16); assay type: cell-based; settings: 100 uM
# Description: as §1, §2
# (§4) Caspase-Glo 3/7 reagents also were thawed and equilibrated to room temperature before the experiment.
# [7] = system: Caspase 3/7 in WM115 cells; experiment: Caspase-Glo 3/7 assay (Example 16); assay type: cell-based; settings: 100 uM
# Description: as §1, §2, §4
# [8] = system: UV-induced erythema of the subject's skin; experiment: In vivo photoprotection proof of concept, UVB irradiation of treated skin sites (Example 38); design: species or system human
# Excerpt: The Malassezin 1% formulation used in this study contained the following ingredients: Water (aqua)—65.939%; Dimethyl isosorbide—20.000%; Olive Oil Glycereth-8 Esters—3.000%; Glycerin—2.991%; Coconut Alkanes—2.700%; Hydroxyethyl Acrylate/Sodium Acryloyldimethyl Taurate Copolymer—1.700%; Malassezin—1.000%; Pentylene Glycol—1.000%; Phenoxyethanol—0.640%; Coco-Caprylate/Caprate—0.300%; Caprylyl Glycol—0.200%; Chlorphenesin—0.160%; Sorbitan Isostearate—0.140%; Tocopherol—0.100%; Polysorbate 60-0.080%; and Disodium EDTA—0.050%.
# A Skin Type IV […] was included in this Proof of Concept study.
# A template of 6 squares was placed on the lower left back (1.5 cm×1.5 cm) of the test subject.
# Twenty-four hours after irradiation, the subject returned for MED assessment.
# A second right lower square was treated twice daily from day 4 to day 7, and a third medial square for one application on day 7. The product vehicle was applied for 7 days twice daily on the left back. The subject returned to the research center for irradiation on day 7. Each test site was irradiated with 120 mJ of UVB exposure. The subject returned in 24 hours for assessment of phototoxicity/photoprotection.
# The subject continued the experiment, receiving Malassezin 1% for a total of 14 days. […]
# [9] = system: primary human melanocytes; settings: cited from earlier work
# [10] = biological target: T1, arylhydrocarbon receptor (AhR); design: HepG2 cells stably transfected with an AhR-responsive luciferase reporter gene plasmid; host or cells: HepG2-AhR-Luc (HepG2 stably transfected with an AhR-responsive luciferase reporter plasmid); settings: cited from earlier work
# MeWo cells [11] = experiment: Preliminary annexin V-FITC assay (Example 7); assay type: cell-based; settings: 6-hour treatment, preliminary screen
# Description: (§5) MeWo (ATCC® HTB-65™) and WM115 (ATCC® CRL-1675) cells were purchased from ATCC (Manassas, Va.) and maintained in the following: for MeWo:DMEM supplemented with 10% FBS; for WM115: RPMI 1640 supplemented with 10% FBS (10% FBS, 1% stabilized antibiotic anti-mycotic solution).
# (§6) During the first set of studies, both MeWo and WM115 cells were treated with test compounds at 10 doses starting from 100 μM with 3-fold dilution. Staurosporine was used as positive control. After 6-hour treatment, cell apoptosis was assessed using an annexin V assay. The test compounds evaluated were CV-8684, CV-8685, CV-8686, CV-8687, and CV-8688.
# (§7) For cell seeding, cells were harvested and the cell number was determined using Countess® cell counter. Cells were then diluted with culture medium to the desired density. 40 μL of cell suspension per well was added to the required number of wells in a 384-well plate (Corning 3712—clear bottom plate). The final cell density was 6,000 cells/well. After plating, the plates were incubated at 37° C., and 5% CO2 overnight.
# (§8) For preparation of compound source plate, each test compound was dissolved in DMSO to 10 mM stock. 3-fold serial dilution was performed using an EVO200™ liquid handler (TECAN) to generate ten concentrations of test compound. 0.1% DMSO was employed as vehicle (negative) control. The compound source plate was then spun at room temperature at 1,000 RPM for 1 minute and agitated using a plate shaker for 2 minutes.
# (§9) For compound treatment, 40 nL of compound were transferred from the compound source plate to the 384-well culture plate using liquid handler Echo550 (LabCyte Inc.). After 6-hour incubation, the plates were removed from the incubator for detection.
# (§10) For the preliminary annexin V assay, the plates were removed from the incubator and allowed to equilibrate at room temperature for 15 minutes. Culture media was then removed. 20 μL of pre-mixed annexin V-FITC and Hoechst33342 dye working solution were added to each well. The cells were then incubated at room temperature for 20 minutes. […] Afterward, the plate was read using an Acumen eX3 plate reader. The relative activity was calculated according to the following formula: Activity (%)=100%×(CountAnnexin V/CountTotal cell), and EC50 was calculated using GraphPad Prism (v. 5.01).
# WM115 cells [12] = experiment: Preliminary annexin V-FITC assay (Example 7); assay type: cell-based; settings: 6-hour treatment, preliminary screen
# Description: as §5, §6, §7, §8, §9, §10
# [13] = CellTiter-Glo cell viability assay (Example 9); assay type: cell-based; settings: human; after 24-hour treatment; read-out: inhibition of cell viability
# Description: (§11) CellTiter-Glo® 2.0 assay was purchased from Promega. Cell seeding, preparation of the compound source plate, and exposure of cells to test compounds were performed as described in Example 8.
# (§12) CellTiter-Glo® reagents were thawed and equilibrated to room temperature before the experiment. 40 μL of CellTiter-Glo® reagent was then added to each well for detection (at 1:1 ratio to culture medium). The plates were then incubated at room temperature for 30 minutes and read using EnSpire (PerkinElmer) plate reader. The remaining activity was calculated according to the following formula: Remaining Activity (%)=100%×(Lumsample−Lumbkg)/(Lumvehicle−Lumbkg).
# [14] = CellTiter-Glo cell viability assay (Example 9); assay type: cell-based; settings: human; after 24-hour treatment; read-out: inhibition of cell viability; remark: listed apart in the source
# Description: as §11, §12
# MeWo cells [15] = experiment: Cell morphology after treatment (Example 6); assay type: cell-based; settings: 100 μM, 6 hours
# WM115 cells [16] = experiment: Cell morphology after treatment (Example 6); assay type: cell-based; settings: 100 μM, 6 hours
# yeast model = settings: cited from earlier work
smiles,measurement,setting,value
COC(=O)c1c(C(C)c2c[nH]c3ccccc23)[nH]c2ccccc12 (stereo not shown) [Compound B (CV-8877)],melanin concentration,MelanoDerm™ Skin Model [1],25.99 µg/mL
same,EC50,[2]; Table 2,13.8 µM
O=Cc1c(C(c2c[nH]c3ccccc23)C2CC2)[nH]c2ccccc12 (stereo not shown) [AB12508],melanin concentration,MelanoDerm™ Skin Model [1],25.26 µg/mL
same,EC50,[2]; Table 1,15.4 µM
same,EC50,[2]; Table 2,14.2 µM
"O=Cc1c(Cc2c[nH]c3ccccc23)[nH]c2ccccc12 [Malassezin, malassezin]",pigmentation of tissues,MelanoDerm™ Skin Model [3],reduced pigmentation
same,cell death (Annexin V staining),B16F1 cells,induced cell death
same,cell death (Annexin V staining),MeWo cells [4],induced cell death
same,cell death (Annexin V staining),WM115 cells [5],induced cell death
same,Caspase 3/7 activation,[6],activated Caspase 3/7
same,Caspase 3/7 activation,[7],activated Caspase 3/7
same,"UV protection, conclusion of the study",[8],UV-protective properties
same,apoptosis induction,[9],induces apoptosis
same,EC50,[2]; Table 2,13.4 µM
same,AhR agonism,[10],known agonist; also recorded: aryl hydrocarbon receptor agonist
"CN[C@@H]1C[C@H]2O[C@@](C)([C@@H]1OC)n1c3ccccc3c3c4c(c5c6ccccc6n2c5c31)C(=O)NC4 [Staurosporine, reference compound]",annexin V staining,MeWo cells [11],greatly increased annexin V staining
same,annexin V staining,WM115 cells [12],greatly increased annexin V staining
same,cytotoxicity at 24 h,[13],100%
same,cytotoxicity at 24 h,[14],100%
same,cell morphology,MeWo cells [15],significantly affected
same,cell morphology,WM115 cells [16],significantly affected
"O=C1OC(c2c[nH]c3ccccc23)=C(c2c[nH]c3ccccc23)C1=O [pityrialactone, Pityrialactone]",UV protective properties,yeast model,confirmed
